Experimental data reported in ChEMBL document CHEMBL1141816, “Massarinolins A-C: new bioactive sesquiterpenoids from the aquatic fungus massarina tunicata” (1999).
Active and inactive are the calls of the source. The calls are words filed in the database; no cut-off is given here.

What was measured:
Bacillus subtilis = assay: Antibacterial activity against Bacillus subtilis ATCC 6051 at 200 ug/disk by standard disk assay; assay type: functional; conditions: for zone of inhibition at 200 µg/disc: read-out: IZ
Candida albicans = assay: Antifungal activity against Candida albicans ATCC 14053 at 200 ug/disk by standard disk assay; assay type: functional, organism-based
Staphylococcus aureus = assay: Antibacterial activity against Staphylococcus aureus ATCC 29213 at 200 ug/disk by standard disk assay; assay type: functional

C=C1CC[C@H]2C[C@@H]1[C@]2(CO)C[C@H](O)/C=C(\C)C(=O)O
Activity (Bacillus subtilis): inactive
Activity (Candida albicans): inactive
Activity (Staphylococcus aureus): inactive

C=C1CC[C@H]2C[C@@H]1[C@@]21CO[C@]2(C=C(C)C(=O)O2)[C@H]1O [MASSARINOLIN A]
zone of inhibition at 200 µg/disc (Bacillus subtilis): 17 mm
Activity (Candida albicans): inactive
zone of inhibition at 200 µg/disc (Staphylococcus aureus; read-out: IZ): 10 mm

C/C(=C\[C@@H](O)C[C@@]12CO[C@]3(C)CC[C@H]1C[C@H]23)C(=O)O [MASSARINOLIN B]
zone of inhibition at 200 µg/disc (Bacillus subtilis): 8 mm
Activity (Candida albicans): inactive
